Data: ChEMBL document CHEMBL1131542, “A potent dipeptide inhibitor of dipeptidyl peptidase IV” (Bioorg Med Chem Lett, 1998)
pIC50: −log10 of the molar value. Square brackets hold non-standard residues; d marks the D form. Peptide text beside a SMILES is read from it. Tic = O=C(O)[C@@H]1Cc2ccccc2CN1

Legend:
Dipeptidyl peptidase 4 [1] = biological target: T1, Dipeptidyl peptidase 4 (Homo sapiens, UniProt P27487); test: Percent inhibition against Dipeptidylpeptidase IV (DPP IV) at a concentration of 10 uM
Target sequence in this assay (P27487 whole entry, looked up): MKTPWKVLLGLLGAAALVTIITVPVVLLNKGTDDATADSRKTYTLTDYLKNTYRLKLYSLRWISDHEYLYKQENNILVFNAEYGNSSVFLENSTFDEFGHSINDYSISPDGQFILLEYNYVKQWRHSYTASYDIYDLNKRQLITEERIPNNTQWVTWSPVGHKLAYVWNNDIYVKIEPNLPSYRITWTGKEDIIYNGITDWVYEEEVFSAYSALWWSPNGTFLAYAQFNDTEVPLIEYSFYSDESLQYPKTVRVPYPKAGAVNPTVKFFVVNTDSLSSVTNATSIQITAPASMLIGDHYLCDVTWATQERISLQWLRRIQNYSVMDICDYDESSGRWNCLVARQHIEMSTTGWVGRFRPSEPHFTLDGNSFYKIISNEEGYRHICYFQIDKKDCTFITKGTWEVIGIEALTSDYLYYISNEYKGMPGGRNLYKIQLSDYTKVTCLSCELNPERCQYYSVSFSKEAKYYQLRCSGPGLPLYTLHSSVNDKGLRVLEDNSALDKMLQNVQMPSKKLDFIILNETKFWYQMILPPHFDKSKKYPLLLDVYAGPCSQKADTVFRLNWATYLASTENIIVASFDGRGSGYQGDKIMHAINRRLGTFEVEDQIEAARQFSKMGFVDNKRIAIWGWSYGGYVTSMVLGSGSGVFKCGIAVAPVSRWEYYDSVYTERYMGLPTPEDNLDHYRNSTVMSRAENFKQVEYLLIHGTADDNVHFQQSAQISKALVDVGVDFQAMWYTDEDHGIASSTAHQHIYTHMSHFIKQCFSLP

Dipeptidyl peptidase 4 [2] = biological target: T1, Dipeptidyl peptidase 4; test: Percent inhibition against Dipeptidyl peptidase IV (DPP IV) at a concentration of 1 uM
Target sequence in this assay (P27487 whole entry, looked up): as above

Dipeptidyl peptidase 4 [3] = biological target: T1, Dipeptidyl peptidase 4; test: Percent inhibition of Dipeptidyl peptidase IV (DPP IV) at a concentration of 10 uM
Target sequence in this assay (P27487 whole entry, looked up): as above

Dipeptidyl peptidase 4 [4] = biological target: T1, Dipeptidyl peptidase 4; test: Inhibitory concentration against Dipeptidyl peptidase IV (DPP IV)
Target sequence in this assay (P27487 whole entry): as the sequence (P27487 whole entry, looked up) above

inhibition (Dipeptidyl peptidase 4 [2]) [%]	also measured	SMILES
	inhibition (Dipeptidyl peptidase 4 [1]): 7.7%	COc1c(O)cc2c(c1O)CN(C(=O)[C@@H](N)Cc1c[nH]c3ccccc13)[C@H](C(=O)N[C@@H](CC(CO)CO)C(=O)O)C2
6		CC[C@H](C)[C@H](N)C(=O)N1Cc2ccccc2C[C@H]1C(=O)N[C@@H](C)C(=O)N[C@@H](CCCN=C(N)N)C(=O)N[C@@H](CC(N)=O)C(=O)N[C@@H](CC(=O)O)C(=O)N[C@@H](CCC(N)=O)C(=O)N[C@@H](CCC(=O)O)C(=O)NCC(=O)N[C@@H](Cc1c[nH]cn1)C(=O)N[C@H](C(=O)N[C@@H](CC(C)C)C(=O)N[C@@H](CCCCN)C(=O)N[C@@H](CCSC)C(=O)N[C@@H](Cc1ccccc1)C(=O)N1CCC[C@H]1C(=O)N[C@@H](CO)C(=O)N[C@H](C(=O)N[C@@H](Cc1c[nH]c2ccccc12)C(=O)N[C@@H](Cc1ccc(O)cc1)C(=O)N[C@H](C(=O)O)C(C)C)[C@@H](C)O)[C@@H](C)CC (H-I[Tic]ARNDQEGHILKMFPSTWYV-OH)
7		CC[C@H](C)[C@H](NC(=O)[C@H](Cc1c[nH]cn1)NC(=O)CNC(=O)[C@H](CCC(=O)O)NC(=O)[C@H](CCC(N)=O)NC(=O)[C@H](CC(=O)O)NC(=O)[C@H](CC(N)=O)NC(=O)[C@H](CCCN=C(N)N)NC(=O)[C@H](C)NC(=O)[C@@H]1Cc2ccccc2CN1C(=O)[C@@H](N)CCCCN)C(=O)N[C@@H](CC(C)C)C(=O)N[C@@H](CCCCN)C(=O)N[C@@H](CCSC)C(=O)N[C@@H](Cc1ccccc1)C(=O)N1CCC[C@H]1C(=O)N[C@@H](CO)C(=O)N[C@H](C(=O)N[C@@H](Cc1c[nH]c2ccccc12)C(=O)N[C@@H](Cc1ccc(O)cc1)C(=O)N[C@H](C(=O)O)C(C)C)[C@@H](C)O (H-K[Tic]ARNDQEGHILKMFPSTWYV-OH)
7		CC[C@H](C)[C@H](NC(=O)[C@H](Cc1c[nH]cn1)NC(=O)CNC(=O)[C@H](CCC(=O)O)NC(=O)[C@H](CCC(N)=O)NC(=O)[C@H](CC(=O)O)NC(=O)[C@H](CC(N)=O)NC(=O)[C@H](CCCN=C(N)N)NC(=O)[C@H](C)NC(=O)[C@@H]1Cc2ccccc2CN1C(=O)[C@@H](N)CC(C)C)C(=O)N[C@@H](CC(C)C)C(=O)N[C@@H](CCCCN)C(=O)N[C@@H](CCSC)C(=O)N[C@@H](Cc1ccccc1)C(=O)N1CCC[C@H]1C(=O)N[C@@H](CO)C(=O)N[C@H](C(=O)N[C@@H](Cc1c[nH]c2ccccc12)C(=O)N[C@@H](Cc1ccc(O)cc1)C(=O)N[C@H](C(=O)O)C(C)C)[C@@H](C)O (H-L[Tic]ARNDQEGHILKMFPSTWYV-OH)
6		CC[C@H](C)[C@H](NC(=O)[C@H](Cc1c[nH]cn1)NC(=O)CNC(=O)[C@H](CCC(=O)O)NC(=O)[C@H](CCC(N)=O)NC(=O)[C@H](CC(=O)O)NC(=O)[C@H](CC(N)=O)NC(=O)[C@H](CCCN=C(N)N)NC(=O)[C@H](C)NC(=O)[C@@H]1Cc2ccccc2CN1C(=O)[C@@H](N)CCSC)C(=O)N[C@@H](CC(C)C)C(=O)N[C@@H](CCCCN)C(=O)N[C@@H](CCSC)C(=O)N[C@@H](Cc1ccccc1)C(=O)N1CCC[C@H]1C(=O)N[C@@H](CO)C(=O)N[C@H](C(=O)N[C@@H](Cc1c[nH]c2ccccc12)C(=O)N[C@@H](Cc1ccc(O)cc1)C(=O)N[C@H](C(=O)O)C(C)C)[C@@H](C)O (H-M[Tic]ARNDQEGHILKMFPSTWYV-OH)
9		CC[C@H](C)[C@H](NC(=O)[C@H](Cc1c[nH]cn1)NC(=O)CNC(=O)[C@H](CCC(=O)O)NC(=O)[C@H](CCC(N)=O)NC(=O)[C@H](CC(=O)O)NC(=O)[C@H](CC(N)=O)NC(=O)[C@H](CCCN=C(N)N)NC(=O)[C@H](C)NC(=O)[C@@H]1Cc2ccccc2CN1C(=O)[C@@H](N)CC(N)=O)C(=O)N[C@@H](CC(C)C)C(=O)N[C@@H](CCCCN)C(=O)N[C@@H](CCSC)C(=O)N[C@@H](Cc1ccccc1)C(=O)N1CCC[C@H]1C(=O)N[C@@H](CO)C(=O)N[C@H](C(=O)N[C@@H](Cc1c[nH]c2ccccc12)C(=O)N[C@@H](Cc1ccc(O)cc1)C(=O)N[C@H](C(=O)O)C(C)C)[C@@H](C)O (H-N[Tic]ARNDQEGHILKMFPSTWYV-OH)
4		CC[C@H](C)[C@H](NC(=O)[C@H](Cc1c[nH]cn1)NC(=O)CNC(=O)[C@H](CCC(=O)O)NC(=O)[C@H](CCC(N)=O)NC(=O)[C@H](CC(=O)O)NC(=O)[C@H](CC(N)=O)NC(=O)[C@H](CCCN=C(N)N)NC(=O)[C@H](C)NC(=O)[C@@H]1Cc2ccccc2CN1C(=O)[C@@H](N)CCC(N)=O)C(=O)N[C@@H](CC(C)C)C(=O)N[C@@H](CCCCN)C(=O)N[C@@H](CCSC)C(=O)N[C@@H](Cc1ccccc1)C(=O)N1CCC[C@H]1C(=O)N[C@@H](CO)C(=O)N[C@H](C(=O)N[C@@H](Cc1c[nH]c2ccccc12)C(=O)N[C@@H](Cc1ccc(O)cc1)C(=O)N[C@H](C(=O)O)C(C)C)[C@@H](C)O (H-Q[Tic]ARNDQEGHILKMFPSTWYV-OH)
10		CC[C@H](C)[C@H](NC(=O)[C@H](Cc1c[nH]cn1)NC(=O)CNC(=O)[C@H](CCC(=O)O)NC(=O)[C@H](CCC(N)=O)NC(=O)[C@H](CC(=O)O)NC(=O)[C@H](CC(N)=O)NC(=O)[C@H](CCCN=C(N)N)NC(=O)[C@H](C)NC(=O)[C@@H]1Cc2ccccc2CN1C(=O)[C@@H](N)CCCN=C(N)N)C(=O)N[C@@H](CC(C)C)C(=O)N[C@@H](CCCCN)C(=O)N[C@@H](CCSC)C(=O)N[C@@H](Cc1ccccc1)C(=O)N1CCC[C@H]1C(=O)N[C@@H](CO)C(=O)N[C@H](C(=O)N[C@@H](Cc1c[nH]c2ccccc12)C(=O)N[C@@H](Cc1ccc(O)cc1)C(=O)N[C@H](C(=O)O)C(C)C)[C@@H](C)O (H-R[Tic]ARNDQEGHILKMFPSTWYV-OH)
10		CC[C@H](C)[C@H](NC(=O)[C@H](Cc1c[nH]cn1)NC(=O)CNC(=O)[C@H](CCC(=O)O)NC(=O)[C@H](CCC(N)=O)NC(=O)[C@H](CC(=O)O)NC(=O)[C@H](CC(N)=O)NC(=O)[C@H](CCCN=C(N)N)NC(=O)[C@H](C)NC(=O)[C@@H]1Cc2ccccc2CN1C(=O)[C@@H](N)CO)C(=O)N[C@@H](CC(C)C)C(=O)N[C@@H](CCCCN)C(=O)N[C@@H](CCSC)C(=O)N[C@@H](Cc1ccccc1)C(=O)N1CCC[C@H]1C(=O)N[C@@H](CO)C(=O)N[C@H](C(=O)N[C@@H](Cc1c[nH]c2ccccc12)C(=O)N[C@@H](Cc1ccc(O)cc1)C(=O)N[C@H](C(=O)O)C(C)C)[C@@H](C)O (H-S[Tic]ARNDQEGHILKMFPSTWYV-OH)
17		CC[C@H](C)[C@H](NC(=O)[C@H](Cc1c[nH]cn1)NC(=O)CNC(=O)[C@H](CCC(=O)O)NC(=O)[C@H](CCC(N)=O)NC(=O)[C@H](CC(=O)O)NC(=O)[C@H](CC(N)=O)NC(=O)[C@H](CCCN=C(N)N)NC(=O)[C@H](C)NC(=O)[C@@H]1Cc2ccccc2CN1C(=O)[C@@H](N)[C@@H](C)O)C(=O)N[C@@H](CC(C)C)C(=O)N[C@@H](CCCCN)C(=O)N[C@@H](CCSC)C(=O)N[C@@H](Cc1ccccc1)C(=O)N1CCC[C@H]1C(=O)N[C@@H](CO)C(=O)N[C@H](C(=O)N[C@@H](Cc1c[nH]c2ccccc12)C(=O)N[C@@H](Cc1ccc(O)cc1)C(=O)N[C@H](C(=O)O)C(C)C)[C@@H](C)O (H-T[Tic]ARNDQEGHILKMFPSTWYV-OH)
	inhibition (Dipeptidyl peptidase 4 [3]): 62%; pIC50 (Dipeptidyl peptidase 4 [4]): 5.15	N[C@@H](Cc1c[nH]c2ccccc12)C(=O)N1Cc2ccccc2C[C@H]1C(=O)N[C@@H](CCC(=O)O)C(=O)O (H-Trp-[Tic]-Glu-OH)
	inhibition (Dipeptidyl peptidase 4 [3]): 59%; pIC50 (Dipeptidyl peptidase 4 [4]): 5.24	N[C@@H](Cc1c[nH]c2ccccc12)C(=O)N1Cc2ccccc2C[C@H]1C(=O)O (H-Trp-[Tic]-OH)
	inhibition (Dipeptidyl peptidase 4 [3]): 53%; pIC50 (Dipeptidyl peptidase 4 [4]): 5.10	N[C@@H](Cc1c[nH]c2ccccc12)C(=O)N1Cc2ccccc2C[C@H]1C(=O)N[C@@H](CO)C(=O)O (H-Trp-[Tic]-Ser-OH)
3		CC[C@H](C)[C@H](NC(=O)[C@H](Cc1c[nH]cn1)NC(=O)CNC(=O)[C@H](CCC(=O)O)NC(=O)[C@H](CCC(N)=O)NC(=O)[C@H](CC(=O)O)NC(=O)[C@H](CC(N)=O)NC(=O)[C@H](CCCN=C(N)N)NC(=O)[C@H](C)NC(=O)[C@@H]1Cc2ccccc2CN1C(=O)[C@@H](N)C(C)C)C(=O)N[C@@H](CC(C)C)C(=O)N[C@@H](CCCCN)C(=O)N[C@@H](CCSC)C(=O)N[C@@H](Cc1ccccc1)C(=O)N1CCC[C@H]1C(=O)N[C@@H](CO)C(=O)N[C@H](C(=O)N[C@@H](Cc1c[nH]c2ccccc12)C(=O)N[C@@H](Cc1ccc(O)cc1)C(=O)N[C@H](C(=O)O)C(C)C)[C@@H](C)O (H-V[Tic]ARNDQEGHILKMFPSTWYV-OH)
61		CC[C@H](C)[C@H](NC(=O)[C@H](Cc1c[nH]cn1)NC(=O)CNC(=O)[C@H](CCC(=O)O)NC(=O)[C@H](CCC(N)=O)NC(=O)[C@H](CC(=O)O)NC(=O)[C@H](CC(N)=O)NC(=O)[C@H](CCCN=C(N)N)NC(=O)[C@H](C)NC(=O)[C@@H]1Cc2ccccc2CN1C(=O)[C@@H](N)Cc1c[nH]c2ccccc12)C(=O)N[C@@H](CC(C)C)C(=O)N[C@@H](CCCCN)C(=O)N[C@@H](CCSC)C(=O)N[C@@H](Cc1ccccc1)C(=O)N1CCC[C@H]1C(=O)N[C@@H](CO)C(=O)N[C@H](C(=O)N[C@@H](Cc1c[nH]c2ccccc12)C(=O)N[C@@H](Cc1ccc(O)cc1)C(=O)N[C@H](C(=O)O)C(C)C)[C@@H](C)O (H-W[Tic]ARNDQEGHILKMFPSTWYV-OH)
12		CC[C@H](C)[C@H](NC(=O)[C@H](Cc1c[nH]cn1)NC(=O)CNC(=O)[C@H](CCC(=O)O)NC(=O)[C@H](CCC(N)=O)NC(=O)[C@H](CC(=O)O)NC(=O)[C@H](CC(N)=O)NC(=O)[C@H](CCCN=C(N)N)NC(=O)[C@H](C)NC(=O)[C@@H]1Cc2ccccc2CN1C(=O)[C@@H](N)Cc1ccc(O)cc1)C(=O)N[C@@H](CC(C)C)C(=O)N[C@@H](CCCCN)C(=O)N[C@@H](CCSC)C(=O)N[C@@H](Cc1ccccc1)C(=O)N1CCC[C@H]1C(=O)N[C@@H](CO)C(=O)N[C@H](C(=O)N[C@@H](Cc1c[nH]c2ccccc12)C(=O)N[C@@H](Cc1ccc(O)cc1)C(=O)N[C@H](C(=O)O)C(C)C)[C@@H](C)O (H-Y[Tic]ARNDQEGHILKMFPSTWYV-OH)
